# Target: T1, Receptor-type tyrosine-protein kinase FLT3 (Homo sapiens, UniProt P36888)
# T1 sequence (P36888 whole entry): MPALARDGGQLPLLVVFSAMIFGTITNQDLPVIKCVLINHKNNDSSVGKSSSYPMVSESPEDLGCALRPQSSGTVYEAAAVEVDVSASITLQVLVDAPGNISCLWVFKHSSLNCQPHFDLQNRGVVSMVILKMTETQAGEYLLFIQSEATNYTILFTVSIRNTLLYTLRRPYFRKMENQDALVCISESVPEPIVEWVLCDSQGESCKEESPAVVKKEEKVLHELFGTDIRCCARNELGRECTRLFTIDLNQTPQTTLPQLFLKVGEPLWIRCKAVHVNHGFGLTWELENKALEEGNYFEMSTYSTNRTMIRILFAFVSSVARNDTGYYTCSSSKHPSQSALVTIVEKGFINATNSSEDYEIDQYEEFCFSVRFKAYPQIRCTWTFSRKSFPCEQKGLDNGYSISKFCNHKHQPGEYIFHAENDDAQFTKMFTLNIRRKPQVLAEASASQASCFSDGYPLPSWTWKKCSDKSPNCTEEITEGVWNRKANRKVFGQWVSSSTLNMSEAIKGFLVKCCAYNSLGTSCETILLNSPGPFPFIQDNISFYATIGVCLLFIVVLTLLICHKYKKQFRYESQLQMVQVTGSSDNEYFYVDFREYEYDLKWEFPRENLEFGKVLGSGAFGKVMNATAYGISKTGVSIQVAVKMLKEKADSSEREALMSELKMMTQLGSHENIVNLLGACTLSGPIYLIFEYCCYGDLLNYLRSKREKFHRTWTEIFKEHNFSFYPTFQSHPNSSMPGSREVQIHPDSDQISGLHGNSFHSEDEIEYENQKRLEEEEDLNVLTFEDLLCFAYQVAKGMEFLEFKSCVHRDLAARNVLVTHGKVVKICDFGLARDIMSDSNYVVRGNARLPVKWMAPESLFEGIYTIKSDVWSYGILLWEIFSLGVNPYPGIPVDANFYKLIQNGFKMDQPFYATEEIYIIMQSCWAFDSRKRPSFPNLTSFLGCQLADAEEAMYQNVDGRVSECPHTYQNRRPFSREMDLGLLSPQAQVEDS
# Test: Inhibition of recombinant FLT3 (unknown origin) by TR-FRET assay
row,IC50,Compound
1,> 10 µM,O=c1cc(O)cc2oc(-c3ccc(O)c(O)c3)c(OC3O[C@H](CO)[C@@H](O)[C@H](O)[C@@H]3O)c(O)c1-2 (stereo partly drawn)
2,> 10 µM,"O=c1cc(O)cc2oc(-c3ccc(O)c(O)c3)c(O[C@@H]3O[C@H](CO)[C@H](O)[C@H](O)[C@H]3O)c(O)c1-2 [2-(3,4-Dihydroxy-phenyl)-5,7-dihydroxy-3-((2S,4R,5R)-3,4,5-trihydroxy-6-hydroxymethyl-tetrahydro-pyran-2-yloxy)-chromen-4-one]"
3,> 10 µM,O=c1cc(O)cc2oc(-c3ccc(O)c(O)c3)c(O[C@@H]3O[C@H](CO)[C@@H](O)[C@H](O)[C@H]3O)c(O)c1-2 [Quercetin 3-O-beta-D-glucoside]

# — BindingDB's records for doi:10.1016/j.bmcl.2013.01.049 (Dongguk University-Seoul, 2013)
